Reference: the NIST ThermoML archive (doi:10.1016/j.jct.2007.02.012)
Numbers after ± are expanded uncertainties.

Experiments:
[1] = Boiling temperature at pressure P; conditions: Liquid, Distillation
[2] = 101.33 kPa, Liquid
[3] = refractive index (Na D-line) (dimensionless); conditions: 293.15 K; 101.33 kPa; Liquid; Standard Abbe refractometry

| SMILES | Boiling temperature at pressure P ([1]; 101.33 kPa) [°C] | mass density ([2]; 293.15 K) [kg/m3] | refractive index [3] | mass density ([2]; 298.15 K) [kg/m3] | Boiling temperature at pressure P ([1]; 1.733 kPa) [°C] |
| --- | --- | --- | --- | --- | --- |
| COC(=O)CCCC(=O)OC [dimethyl pentanedioate] | 214.2 ± 0.2 | 1087.67 ± 0.68 | 1.42454 ± 0.00075 |  |  |
| COC(=O)CCC(=O)OC [dimethyl 1,4-butanedioate] | 196.1 ± 0.2 | 1119.13 ± 1.5 | 1.41969 ± 0.00082 |  |  |
| CCC(=O)O [propanoic acid] | 141.4 ± 0.2 |  | 1.3808 ± 0.00075 | 988 ± 0.5 |  |
| COC(=O)CCCCC(=O)OC [dimethyl 1,6-hexanedioate] |  | 1061.72 ± 0.61 | 1.42825 ± 0.00075 |  | 115 ± 1 |
